Test results published in patent US6960653B2, “Method and kit for detecting, or determining the quantity of, beta-lactam penicillins” (Randox Laboratories Limited, priority 2001, dated 2005).
In brackets after ≈: the same amount, converted by molar mass.

Tested on: IgG fraction of anti-ampicillin antiserum (antibodies raised against the hapten-BSA immunogen of Example 2)
Conditions: for % CR, Assay 1 / % CR, Assay 2 / % CR, Assay 3: % CR = IC50amp/IC50pen x 100; for IC50, Assay 1 / IC50, Assay 2 / IC50, Assay 3: concentration causing 50% displacement of signal, standards in TBST, ampicillin-HRP conjugate; for IC50, Mean Results / % CR, Mean Results: mean of Assays 1-3; for % CR, Mean Results: relative to 100% for ampicillin
Protocol: An aqueous solution of the immunogen of Example 2 was formulated with Freund's Complete Adjuvant (FCA) to form an emulsion consisting of 2 mg/ml immunogen in 50% (v/v) FCA. Three sheep were immunised with this emulsion, 0.25 ml being subcutaneously injected at each of 4 sites in the flank of each animal. Subsequent immunisations (boosts) contained 1 mg/ml immunogen emulsified in 50% (v/v) Freund's Incomplete Adjuvant (FIA) and were administered in the same manner at monthly intervals for 1 year. Blood sampling took place 7 to 14 days after each boost. Each sample was processed to produce antiserum which was further purified by caprylic acid and ammonium sulfate precipitation to yield an immunoglobulin G (IgG) fraction. The IgG fraction was evaluated by competitive ELISA, microtiter plate assay, as described below.
Serial dilutions of the IgG fraction of each antiserum to be tested (prepared in accordance with Example 4) were prepared in 10 mM Tris, pH 8.5. The wells of an enhanced binding 96 well polystyrene microtiter plate were coated with these dilutions (as shown in FIG. 2) by incubation at 37° C. for 2 hours (125 μl/well). The plate was washed 4 times with Tris buffered saline (pH7.4) containing Tween (Trade Mark) 20 (TBST) and tapped dry. […] 50 μl of TBST was added to the remaining (control) wells. […] The plate was incubated at 37° C. for 2 hours. The excess unbound conjugate was removed by washing 6 times over a 10 minute period with TBST. 125 μl of tetramethylbenzidine (TMB) substrate solution was added to each well of the plate, which was then incubated for 15 to 20 minutes, in the dark, at room temperature. The reaction was terminated by addition of 125 μl 0.2M H2SO4 to each well. The absorbance was then measured at 450 nm using a microtiter plate reader.
Standard solutions of benzylpenicillin (penicillin G-PenG), amoxycillin (Amox), cloxacillin (Clox), dicloxacillin (Diclox) and oxacillin (Oxa) were prepared in TBST at 0, 1, 5, 10, 50, 100, 200 and 500 ng/ml.

## CC1(C)S[C@@H]2[C@H](NC(=O)[C@H](N)c3ccccc3)C(=O)N2[C@H]1C(=O)O [Amp, ampicillin]
  % CR, Assay 1: 100%
  IC50, Assay 1: 1.7 ng/mL (≈ 4.87 nM)
  % CR, Assay 2: 100%
  IC50, Assay 2: 2.5 ng/mL (≈ 7.15 nM)
  % CR, Assay 3: 100%
  IC50, Assay 3: 2.5 ng/mL (≈ 7.15 nM)
  IC50, Mean Results: 2.2 ng/mL (≈ 6.3 nM)
  % CR, Mean Results: 100%

## Cc1onc(-c2c(Cl)cccc2Cl)c1C(=O)N[C@@H]1C(=O)N2[C@@H]1SC(C)(C)[C@@H]2C(=O)O [Dicloxa, dicloxacillin]
  % CR, Assay 1: 45%
  IC50, Assay 1: 3.8 ng/mL (≈ 8.08 nM)
  % CR, Assay 2: 42%
  IC50, Assay 2: 6.0 ng/mL (≈ 12.8 nM)
  % CR, Assay 3: 51%
  IC50, Assay 3: 4.9 ng/mL (≈ 10.4 nM)
  IC50, Mean Results: 4.9 ng/mL (≈ 10.4 nM)
  % CR, Mean Results: 46%

## CC1(C)S[C@@H]2[C@H](NC(=O)Cc3ccccc3)C(=O)N2[C@H]1C(=O)O [PenG, benzylpenicillin]
  % CR, Assay 1: 63%
  IC50, Assay 1: 2.7 ng/mL (≈ 8.07 nM)
  % CR, Assay 2: 78%
  IC50, Assay 2: 3.2 ng/mL (≈ 9.57 nM)
  % CR, Assay 3: 74%
  IC50, Assay 3: 3.4 ng/mL (≈ 10.2 nM)
  IC50, Mean Results: 3.1 ng/mL (≈ 9.27 nM)
  % CR, Mean Results: 72%

## Cc1onc(-c2ccccc2)c1C(=O)N[C@@H]1C(=O)N2[C@@H]1SC(C)(C)[C@@H]2C(=O)O [Oxa, oxacillin]
  % CR, Assay 1: 42.5%
  IC50, Assay 1: 4.0 ng/mL (≈ 9.96 nM)
  % CR, Assay 2: 36%
  IC50, Assay 2: 7.0 ng/mL (≈ 17.4 nM)
  % CR, Assay 3: 38%
  IC50, Assay 3: 6.6 ng/mL (≈ 16.4 nM)
  IC50, Mean Results: 5.9 ng/mL (≈ 14.7 nM)
  % CR, Mean Results: 39%

## Cc1onc(-c2ccccc2Cl)c1C(=O)N[C@@H]1C(=O)N2[C@@H]1SC(C)(C)[C@@H]2C(=O)O [Cloxa, cloxacillin]
  % CR, Assay 1: 50%
  IC50, Assay 1: 3.4 ng/mL (≈ 7.8 nM)
  % CR, Assay 2: 43%
  IC50, Assay 2: 5.8 ng/mL (≈ 13.3 nM)
  % CR, Assay 3: 43%
  IC50, Assay 3: 5.8 ng/mL (≈ 13.3 nM)
  IC50, Mean Results: 5 ng/mL (≈ 11.5 nM)
  % CR, Mean Results: 45%

## CC1(C)SC2C(NC(=O)C(N)c3ccc(O)cc3)C(=O)N2C1C(=O)O (stereo not drawn) [Amox, amoxycillin]
  % CR, Assay 1: 94%
  IC50, Assay 1: 1.8 ng/mL (≈ 4.93 nM)
  % CR, Assay 2: 83%
  IC50, Assay 2: 3.0 ng/mL (≈ 8.21 nM)
  % CR, Assay 3: 83%
  IC50, Assay 3: 3.0 ng/mL (≈ 8.21 nM)
  IC50, Mean Results: 2.6 ng/mL (≈ 7.12 nM)
  % CR, Mean Results: 87%
